Experimental data taken from patent publication US9012439B2, “Use of electrophilic compounds for inducing platelet production or maintaining platelet function” (University of Rochester, priority 2007, dated 2015).

Experiments:
[1] = system: primary mouse megakaryocytes; test: DNA content analysis of primary mouse megakaryocytes; assay type: cell-based; conditions: by 24 h
Experimental: Bone marrow was isolated from the femora of male C57BL/6 mice (Jackson Laboratories, Bar Harbor, Me.) and plated at a concentration of 1×10^6 cells per well in 12-well plates in IMDM (Iscove's Modified Dulbecco's Media, Invitrogen) with 20% BIT 9500 (BSA, insulin, transferrin) and supplemented with 100 ng/mL of rhTPO. Cells were cultured for 5 days, following which 15d-PGJ2 (10 μM) was added to the culture medium for 24 h. On the sixth day, cells were examined by phase-contrast microscopy using an inverted microscope (Olympus IX81) and images were captured using SPOT RT software (New Hyde Park, N.Y.). Megakaryocytes were identified by preincubating with anti-mouse CD16/32 (FcγR-blocking antibody) and then incubating with PE-conjugated hamster anti-mouse CD41 antibody.
Cells were fixed in 95% ethanol, treated with RNAse (Sigma) followed by 20 μg/mL propidium iodide (Sigma) to stain DNA, and analyzed by flow cytometry.

[2] = system: mouse megakaryocyte progenitors (Meg-CFC); test: Megakaryocyte progenitor (Meg-CFC) assay on bone marrow of treated mice; assay type: in vivo
Experimental: Primary mouse bone marrow cells were suspended in IMDM at a concentration of 8×10^6 cells/mL. Two-hundred thousand cells were plated in IMDM supplemented with 20% BIT9500, 0.2% 2-mercaptoethanol, 2% Glutamax, and 20% Cellgro-H20 (Mediatech, Herndon, Va.) and cultured with rhTPO (50 ng/mL), IL-3 (10 ng/mL) (Preprotech, Rocky Hill, N.J.), IL-6 (20 ng/mL) (Preprotech), IL-11 (Preprotech) (50 ng/mL), and collagen at 37° for 7 days (Tober et al., “The Megakaryocyte Lineage Originates from Hemangioblast Precursors and is an Integral Component Both of Primitive and of Definitive Hematopoiesis,” Blood 109:1433-1441 (2007), which is hereby incorporated by reference in its entirety). Collagen gels were dehydrated, fixed, and labeled with GPIbβ and GPV, modified by ABC (Vector Labs, Burlingame, Calif.), and developed in Vector Red (Vector Labs). Meg-CFC were defined by their ability to generate colonies containing at least three megakaryocytes.

[3] = system: C57BL/6 mice; test: Irradiation-induced thrombocytopenia (5 Gy total body irradiation); assay type: in vivo, mouse (C57BL/6); conditions: 5 Gy
Experimental: (§1) Seven or 8-week-old male C57BL/6 mice (Jackson Laboratories) were either exposed to 5 Gy cesium (Cs^137) total body irradiation (TBI) using a Model 8114 6000 Curie Shepherd Cs^137 irradiator (approximately 3200 Curie sealed Cs^137 source) with a dose rate of […] or left unexposed. Mice (n=4) received intravenous injections of vehicle (8% DMSO) or 15d-PGJ2 (1 mg/kg) or CDDO-Me (250 μg/kg) for 4 consecutive days from day 1 (days 1, 2, 3 and 4 post-irradiation). Blood was obtained from the aorta or the orbital sinus. Platelets were counted prior to radiation exposure and after radiation exposure on day 10, day 22, and day 31 in Example 7, or days 4, 10, 16, and 21 in Example 9 using the Heska® CBC-Diff™ Veterinary Analyzer (Fort Collins, Colo.). Data are expressed as average platelet counts from two separate experiments. For the unirradiated mice, platelets were counted on day 4, day 10, and day 15 in Example 7 or on the same days in Example 9.

[4] = system: Meg-01 cells; test: Platelet production from Meg-01 cells (flow cytometry); assay type: cell-based, human; conditions: Meg-01 cells, 10 μM, 24 h
Experimental: Meg-01 and M07e cells were purchased from the American Type Culture Collection (Rockville, Md.) and Dami cells were a generous gift from Dr. Patricia J. Simpson-Haidaris (University of Rochester). All cells were cultured in RPMI-1640 tissue culture medium (Invitrogen) supplemented with 5% fetal bovine serum (FBS; Invitrogen), 10 mM HEPES (N-2-hydroxyethylpiperazine-N′-2-ethanesulfonic acid; Sigma), 2 mM L-glutamine (Invitrogen), 4.5 g/L glucose (Invitrogen), and 50 μg/mL gentamicin (Invitrogen). M07e cells were also supplemented with 100 ng/mL of granulocyte monocyte-colony stimulating factor (GM-CSF, R&D Systems). All treatments were performed in normal growth media. Dimethyl sulfoxide (DMSO) was used as a vehicle (control) in the experiments described below.
Platelets were isolated from megakaryocytes by centrifugation at 150 xg for 10 min. Supernatants underwent sequential centrifugation (500 xg for 10 min and 1000×g for 10 min). The remaining platelet pellet was fixed then permeabilized with a CD61 or CD41 antibody. 7-AAD (BD Pharmingen) was added for 10 min before analyzing the cells by flow cytometry. Platelets were identified using three well-described parameters (Patel et al., “The Biogenesis of Platelets from Megakaryocyte Proplatelets,” J Clin Invest 115:3348-3354 (2005); Breton-Gorius et al., “Expression of Platelet Proteins During the In Vitro and In Vivo Differentiation of Megakaryocytes and Morphological Aspects of Their Maturation,” Semin Hematol 23:43-67 (1986); Ogura et al., “Establishment of a Novel Human Megakaryoblastic Leukemia Cell Line, MEG-01, With Positive Philadelphia Chromosome,” Blood 66:1384-1392 (1985) and Franks et al., “A Fluorescence Microscopy Method for Quantifying Levels of Prostaglandin Endoperoxide H Synthase-1 and CD-41 in MEG-01 Cells,” Biol Proced Online 3:54-63 (2001), each of which is hereby incorporated by reference in its entirety), size (using normal human platelets as a control), presence of CD61 or CD41 and lack of DNA as determined by the absence of 7-AAD staining Ten thousand platelet events were collected and platelets were quantified by rate (platelet events/second) (Chung et al., “Platelet Activation in Acute, Decompensated Congestive Heart Failure,” Thromb Res 120:709-713 (2007), which is hereby incorporated by reference in its entirety.
A 19 by target sequence was selected to knock down PPARγ. PPARγ was cloned downstream of the RNA polymerase III U6 promoter and subcloned into a FG12 lentiviral vector which expresses green fluorescent protein (GFP) under the Ubiquitin C promoter. HEK 293 cells expressing this siRNA PPARγ had reduced PPARγ protein levels. To make the lentivirus, HEK 293 cells were co-transfected with 3 plasmids: the envelope vector (CMV-VSVG), the transfer vector (FG12-shRNAPPAR), and the packaging construct (pCMVΔ89.2 (gag/pol proteins)). Viral supernatants were collected every 8 h for 2 days and concentrated by ultracentrifugation at 50,000×g for 2 h at 4° C. using a Beckman SW 28 rotor. Viral titers were determined by infection of HeLa cells with serial dilutions of the viral stocks. Meg-01 cells were infected at a multiplicity of infection (MOI) of 20. After 48 h, approximately 56% of the PPARγ siRNA cells were transduced as determined by flow cytometry. The GFP positive (+) cells were then sorted by FACS and grown in RPMI with 5% FBS.

[5] = target: T1, PPARγ (Homo sapiens, UniProt P37231); test: PPARγ gene reporter analysis (PPRE-luciferase) in Meg-01 cells; assay type: cell-based; conditions: 10 μM, 24 h after ligand treatment
T1 construct: Meg-01 cells were plated at a density of […] cells per well in a E-well plate and transfected; endogenous in cells; host or cells: Meg-01 cells
T1 sequence (P37231 1-505): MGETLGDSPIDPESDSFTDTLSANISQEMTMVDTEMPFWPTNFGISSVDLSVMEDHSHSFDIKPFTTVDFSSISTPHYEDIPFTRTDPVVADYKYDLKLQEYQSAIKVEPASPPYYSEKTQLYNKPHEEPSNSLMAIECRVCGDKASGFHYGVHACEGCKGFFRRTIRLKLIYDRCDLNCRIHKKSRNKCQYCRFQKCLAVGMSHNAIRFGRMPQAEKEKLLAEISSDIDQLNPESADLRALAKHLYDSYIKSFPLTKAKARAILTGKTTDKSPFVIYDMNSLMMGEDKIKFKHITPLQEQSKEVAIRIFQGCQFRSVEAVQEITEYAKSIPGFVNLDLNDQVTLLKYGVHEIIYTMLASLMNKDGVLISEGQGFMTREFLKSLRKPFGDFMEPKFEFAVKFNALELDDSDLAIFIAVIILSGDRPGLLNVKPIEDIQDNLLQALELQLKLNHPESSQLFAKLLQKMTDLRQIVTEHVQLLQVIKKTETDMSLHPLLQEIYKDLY
Experimental: Meg-01 cells were plated at a density of […] cells per well in a […] and transfected, using lipofectamine LTX (Invitrogen), with a PPRE (Peroxisome Proliferator Response Element)-luciferase reporter plasmid containing three copies of the ACO-PPRE (a gift from Dr. B. Seed, Massachusetts General Hospital, Boston, Mass.). […] Transfection efficiency was determined by transfecting the cells with green fluorescent protein (GFP) plasmid and determining the percentage of cells that were GFP+ by flow cytometry. […] Luciferase activity was assessed 24 h after ligand treatment using the Promega Luciferase Assay System, and relative light units (RLU) were determined using a Lumicount Microplate Luminometer (Packard Instrument Co., Meriden, Conn.).

[6] = system: Meg-01 cells; test: Reactive oxygen species production in Meg-01 cells (carboxy-H2DCFDA, MitoSOX Red); assay type: cell-based, human; conditions: Meg-01 cells, 1 h and 6 h; for change in percentage of cells generating mitochondrial superoxide (MitoSOX Red): 10 μM
Experimental: Ten μM carboxy-H2DCFDA was added to cells for 20 min at RT. The cells were washed and immediately analyzed by flow cytometry. Five μM of MitoSOX Red dye in HBSS containing Mg^2+ and Ca^2+ was added to the cells for 15 min at 37° C. The cells were washed in HBSS and analyzed by flow cytometry.

[7] = system: C57BL/6 mice; test: Circulating platelet number in unirradiated mice; assay type: in vivo, mouse (C57BL/6); conditions: unirradiated C57BL/6 mice, 1 mg/kg IV four consecutive days, d 4
Experimental: as §1

| SMILES | primary mouse megakaryocyte ploidy [1] | megakaryocyte number [2] | percentage of megakaryocytes producing proplatelets ([2]; mice injected 250 μg/kg for three consecutive days, 7 days of culture) | Meg-CFC colony formation compared to vehicle control ([2]; normal mice, 250 μg/kg for three consecutive days, bone marrow plated day 4) | platelet counts ([3]; 250 μg/kg days 1-4, day 4) | platelet counts ([3]; 250 μg/kg days 1-4, days 10 and 16) | platelet production [4] | PPARγ activation (PPRE-luciferase activity) [5] | change in percentage of cells generating mitochondrial superoxide (MitoSOX Red) [6] | change in percentage of cells generating ROS (carboxy-H2DCFDA) [6] | levels of circulating platelets on d 4 [7] |
| --- | --- | --- | --- | --- | --- | --- | --- | --- | --- | --- | --- |
| COC(=O)[C@]12CCC(C)(C)C[C@H]1[C@H]1C(=O)C=C3[C@@]4(C)C=C(C#N)C(=O)C(C)(C)[C@@H]4CC[C@@]3(C)[C@]1(C)CC2 [CDDO-Me, methyl-2-cyano-3,12-dioxooleana-1,9-dien-28-oate] | enhanced primary mouse megakaryocyte ploidy | failed to increase megakaryocyte number | significantly augmented the percentage of megakaryocytes producing proplatelets | significantly enhanced Meg-CFC colony formation | increased platelet counts | significantly improved platelet counts | – | – | – | – | – |
| CCCCC/C=C\C=C1\C(=O)CC[C@@H]1C/C=C\CCCC(=O)O [9,10 dihydro-15d-PGJ2, reference compound] | – | – | – | – | – | – | failed to enhance platelet production | activated PPARγ | failed to increase the percentage of cells generating mitochondrial superoxide | failed to increase the percentage of cells generating ROS | – |
| CCCCC/C=C\C=C1\C(=O)C[C@@H](O)[C@H]1C/C=C\CCCC(=O)O [15d-PGD2, 15-deoxy-Δ^12,14-PG22, reference compound] | – | – | – | – | – | – | failed to enhance platelet production | – | failed to increase the percentage of cells generating mitochondrial superoxide | failed to increase the percentage of cells generating ROS | significant increase in the levels of circulating platelets |
